Where a name gives a salt, the structure may show the parent alone.
Legend:
[1] = cited from earlier work
[2] = antioxidant effect on fish-meal samples, Warburg apparatus; details: 40 g. of fish meal + 0.04 g. of antioxidant; for Oxygen Uptake (decrease of O2 pressure, mmHg): 29° C., control 19.5; for Peroxide Number (calculated for 1 g. of fish meal): treated with oxygen, control 7.83
Experimental: The antioxidant effect of the new substances shown in foodstuffs and nutriments was investigated on fish-meal samples. […] In these experiments the oxygen uptake of fish-meal samples containing the various antioxidants was determined in a Warburg apparatus at 29° C., and the results were compared with those measured on samples containing no antioxidant. The peroxide number of samples treated with oxygen was also determined.

[3] = tested on: encephalomalacia of poultries; details: versus EMQ; cited from earlier work
[4] = tested on: rats; details: 14 days, 0.50 g./kg.; cited from earlier work
[5] = LD50 (Korber method, modified by Cornfield); details: in vivo
Source text: The LD50 values of BHT and EMQ are, on the other hand, the following -- measured according to the Korber method, modified by Cornfield: […]

[6] = tested on: animals; details: longer period, dose of 0.56 g./kg.; cited from earlier work
[7] = solubility; format: physicochemical
[8] = tested on: rats; details: rat, in vivo
Source text: (§1) Since the novel compounds are completely nontoxic, they can be used with great advantage in animal husbandry and in the food industry, as well as in therapy. On the basis of the investigations carried out on the acute and chronic toxicity of these new active agents, it can be stated that they are completely free of the disadvantages of the hitherto-known antioxidants mentioned above, first of all as regards their use in therapy.

[9] = tested on: serum cholesterol level; test: serum cholesterol of cholesterol-treated rabbits; format: in vivo; details: 1 g. of cholesterol per day, 0.06 g./kg. XAX daily for 70 or 105 days
Experimental: Due to this fact they can also be used for the prophylaxis and treatment of arteriosclerois. This effect of the new substances was investigated on rabbits treated with 1 g. of cholesterol per day. The animals were treated for 70 or 105 days with daily doses of 0.06 g./kg. of XAX. […] Using the hitherto-known antioxidants, this very favorable and important effect could not be reached at all.

[10] = tested on: malignant tumors; test: appearance of malignant tumors in animals irradiated with minimum doses for a long period; format: in vivo; details: minimum irradiation doses for a long period, versus irradiated controls without XAX
Source text: Another important and unexpected property of the new substances is that they exert radiosensibilizing effect. […] On the basis of this property, the new compounds can also be used for the potentiating of the effect of irradiation therapy.

[11] = tested on: rats; test: continuous administration of XAX for three weeks / 90 days; format: in vivo
Source text: as §1

Cc1cc(C(C)(C)C)c(O)c(C(C)(C)C)c1 [BHT]
anophthalmia (teratogeneous effect) ([1]; aftereffect): the appearance of anophthalmia was observed
cholesterol-synthesis in the liver and endogenous epoxidation ([1]; in vivo): the cholesterol-synthesis in the liver as well as the endogenous epoxidation increases
endogenous production of fatty acids and β-oxidation ([1]; in vivo): stimulates the endogenous production of fatty acids and β-oxidation
gestation period ([1]; in vivo): increases the gestation period
Oxygen Uptake (decrease of O2 pressure, mmHg) [2]: 16.5 mmHg
Peroxide Number (calculated for 1 g. of fish meal) [2]: 3.42
activity in encephalomalacia of poultries [3]: far lower activity than EMQ

CCOc1ccc2c(c1)C(C)=CC(C)(C)N2 [EMQ, 6-ethoxy-2,2,4-trimethyl-1,2-dihydroquinoline]
appetite of the animals [4]: the appetite of the animals was lowered
size of the liver [4]: an increase in size of the liver was observed
LD50 [5]: 2230 ± 300 mg/kg
Oxygen Uptake (decrease of O2 pressure, mmHg) [2]: 23.5 mmHg
Peroxide Number (calculated for 1 g. of fish meal) [2]: 2.87
appetite [6]: may cause appetite lowering
gain in weight [6]: lowers the gain in weight

CC1=CC(C)(C)Nc2ccc(Cc3ccc4c(c3)C(C)=CC(C)(C)N4)cc21 [Example 8, bis-(2,2,4-trimethyl-1,2,-dihydroquinolyl-6)-methane]
solubility in water and alcohol [7]: well soluble in water and alcohol

CC1=CC(C)(C)Nc2ccc(Cc3ccc4c(c3)C(C)=CC(C)(C)N4)cc21 [Example 9, bis-(2,2,4-trimethyl-1,2-dihydroquinolyl-6)-methane]
solubility in water and alcohol [7]: soluble in water and alcohol

CC1=CC(C)(C)Nc2ccc(Cc3ccc4c(c3)C(C)=CC(C)(C)N4)cc21 [XAX, bis-(2,2,4-trimethyl-1,2-dihydroquinolyl-6)-methane]
toxic symptoms [8]: no toxic symptoms
cholesterol level of the blood [9]: the cholesterol level of the blood decreased to a great extent
appearance of malignant tumors [10]: could be suppressed
Oxygen Uptake (decrease of O2 pressure, mmHg) [2]: 11.5 mmHg
Peroxide Number (calculated for 1 g. of fish meal) [2]: 1.54
damaging of tissues or cells ([11]; daily doses of 0.25 mg./kg., three weeks): no damaging of tissues or cells could be observed
weight gain and blood picture ([11]; rats, 90 days, same dose): Neither the weight gain nor the blood picture of the animals was harmfully affected
weight gain of some organs ([11]; rats, 90 days, same dose, versus untreated animals): no excessive weight gain of some organs of the animals could be observed
harmful effects ([11]; rats, same dose (0.25 mg./kg. daily), 90 days): No harmful effects could be observed

CC1=CC(C)(C)Nc2ccc(Cc3ccc4c(c3)C(C)=CC(C)(C)N4)cc21 [sulfuric acid salt of XAX]
solubility in water and alcohol [7]: soluble in water and alcohol
